Experimental data as given in patent publication US11083724B2, “Rimegepant for CGRP related disorders” (Biohaven Pharmaceutical Holding Company Ltd., priority 2018, dated 2021).

Test system: subjects with Acute Migraines
Assay: Study 301 (BHV3000-301, NCT03235479): Phase 3 double-blind placebo-controlled trial, rimegepant 75 mg tablet, acute treatment of migraine
Format: in vivo, human
Conditions: for Freedom from MBS at 2 hours / Pain Freedom (pain-free) at 2 hours: N = 543
Description: Clinical Trial—BHV3000-301: Phase 3: Double-Blind, Randomized, Placebo-Controlled, Safety and Efficacy Trial of BHV-3000 (Rimegepant) for the Acute Treatment of Migraine (ClinicalTrials.gov Identifier: NCT03235479). A phase 3 clinical study was conducted with 1490 participants, as follows. The purpose of this study was to compare the efficacy of BHV-3000 (rimegepant) versus placebo in subjects with Acute Migraines Study Design • Study Type: Interventional (Clinical Trial) • Actual Enrollment: 1490 participants • Allocation: Randomized • Intervention Model: Parallel Assignment • Intervention Model Description: Double-blind to Sponsor, Investigator and Subject Randomized Controlled Trial • Masking: Triple (Participant, Care Provider, Investigator) • Masking Description: Double-blind to Sponsor, Investigator and Subject • Primary Purpose: Treatment • Official Title: BHV3000-301: Phase 3: Double-Blind, Randomized, Placebo-Controlled, Safety and Efficacy Trial of BHV-3000 (Rimegepant) for the Acute Treatment of Migraine Arms and Interventions Outcome Measures Primary Outcome Measures: • 1. Pain freedom of rimegepant (75 mg tablet) compared with placebo in the acute treatment of migraine will be measured using the number of evaluable subjects that report no pain at 2 hours post-dose. [Time Frame: Two hours post dose] • Pain will be measured on a 4 point Likert scale (0=none, 1=mild, 2=moderate, 3=severe) • 2. Freedom from the most bothersome symptom (MBS) of rimegepant (75 mg tablet) compared with placebo will be measured using the number of evaluable subjects that report the absence of their MBS at 2 hours post-dose. [Time Frame: Two hours post dose] • The MBS (nausea, phonophobia or photophobia) will measured using a binary scale (0=absent, 1=present). Secondary Outcome Measures: • 1. […] [Time Frame: 2 hours-24 hours post-dose] • Sustained Pain Freedom as measured by a 4 point numeric rating scale (None, Mild, Moderate, Severe) • 2. The difference between rimegepant (75 mg tablet) compared to placebo by tabulating the absence of photophobia at 2 hours post-dose in the subset of subjects that reported the presence of photophobia at headache baseline. [Time Frame: 2 hours post-dose] • Photophobia • 3. To evaluate rimegepant (75 mg tablet) compared to placebo by tabulating the number of subjects that report the absence of phonophobia at 2 hours post-dose in the subset of subjects that reported the presence of phonophobia at headache baseline. [Time Frame: 2 hours post-dose] • Phonophobia • 4. To measure the difference between rimegepant (75 mg tablet) compared to placebo on Pain Relief, at 2 hours post-dose, for those that report a pain level of moderate or severe at baseline and then report a pain level of none or mild. [Time Frame: 2 hours post-dose] • Pain Relief as measured by a 4 point numeric rating scale (None, Mild, Moderate, Severe) • 5. Freedom from Nausea by tabulating the number of subjects that report the absence of nausea at 2 hours post-dose in the subset of subjects that reported the presence of nausea at headache baseline. [Time Frame: 2 hours post-dose] • Freedom from Nausea • 6. The difference between rimegepant (75 mg tablet) compared to placebo on the probability of requiring rescue medication using the number of subjects that take rescue medication within […] administration of study medication (BHV3000 or placebo). [Time Frame: up to 24 hours post-dose] • Requiring Rescue Medication • 7. […] [Time Frame: 2 hours-24 hours post-dose] • Sustained Pain Freedom • 8. […] [Time Frame: 2 hours-24 hours post-dose] • Sustained Pain Relief as measured by a 4 point numeric rating scale (None, Mild, Moderate, Severe) • 9. […] [Time Frame: 2 hours-48 hours post-dose] • Sustained Pain Relief as measured by a 4 point numeric rating scale (None, Mild, Moderate, Severe) • 10. […]

[1] = Study 301, single 75 mg tablet, listed as rimegepant

**Q.** What does the source list for `N[C@@H]1c2cccnc2[C@H](OC(=O)N2CCC(n3c(=O)[nH]c4ncccc43)CC2)CC[C@H]1c1cccc(F)c1F` [Rimegepant, [(5S,6S,9R)-5-amino-6-(2,3-difluorophenyl)-6,7,8,9-tetrahydro-5H-cyclohepta[b]pyridin-9-yl] 4-(2-oxo-3H-imidazo[4,5-b]pyridin-1-yl)piperidine-1-carboxylate]?
**A.** SAEs related to the study drug (Study 301): No SAE; bilirubin elevations >2 times ULN (Study 301): No bilirubin elevations; transaminase level >5 times ULN (Study 301): no subject; AE dizziness (Study 301, 4/546): 0.7%; AE nausea (Study 301, 5/546): 0.9%; Serum ALT or AST levels greater than ULN (Study 301, 11/546): 2.0%; functional disability: patients achieving normal function at 2 hours versus placebo (Study 301, P<0.0001): greater proportion; Serious AEs (SAEs) (Study 301, n=2): 0.4%; transaminase level >3 times ULN (Study 301, one subject): 0.2%; Free from MBS at 2 hours, subjects [n/N] (Study 301, single 75 mg tablet): [199/543]; Nausea-free at 2 hours (Study 301, single 75 mg tablet): 46.9%; Nausea-free at 2 hours, subjects [n/N] (Study 301, single 75 mg tablet): [149/318]; Pain relief at 2 hours (Study 301, single 75 mg tablet): 56.0%; Pain relief at 2 hours, subjects [n/N] (Study 301, single 75 mg tablet): [304/543]; Pain-free at 2 hours, subjects [n/N] (Study 301, single 75 mg tablet): [104/543]; Phonophobia-free at 2 hours (Study 301, single 75 mg tablet): 38.6%; Phonophobia-free at 2 hours, subjects [n/N] (Study 301, single 75 mg tablet): [133/345]; Photophobia-free at 2 hours (Study 301, single 75 mg tablet): 34.9%; Photophobia-free at 2 hours, subjects [n/N] (Study 301, single 75 mg tablet): [164/470]; Sustained pain relief, 2-24 hours (Study 301, single 75 mg tablet): 38.9%; Sustained pain relief, 2-24 hours, subjects [n/N] (Study 301, single 75 mg tablet): [211/543]; Freedom from MBS at 2 hours (Study 301, single 75 mg tablet): 36.6%; Pain Freedom (pain-free) at 2 hours (Study 301, single 75 mg tablet): 19.2%; Freedom from MBS at 2 hours [1]: 36.6%; Pain Freedom (pain-free) at 2 hours [1]: 19.2%; Pain relief at 2 hours [1]: 56.0%; sustained pain relief from 2 through 48 hours postdose versus placebo (Study 301, single dose, no rescue medication, P=0.0003): superiority versus placebo; sustained pain freedom from 2 through 48 hours postdose versus placebo (Study 301, single dose, no rescue medication, P=0.013): superiority versus placebo
